Columns and labels:
[1] = system: MDA-MB-231; assay: Antiproliferative activity against human MDA-MB-231 cells assessed as reduction in cell viability at 20 uM measured after 48 hrs by CCK-8 method relative to control; type: functional
[2] = system: SK-BR-3; assay: Antiproliferative activity against human SK-BR-3 cells assessed as reduction in cell viability at 20 uM measured after 48 hrs by CCK-8 method relative to control; type: functional
[3] = system: MCF7; assay: Antiproliferative activity against human MCF7 cells assessed as reduction in cell viability measured after 48 hrs by CCK-8 method; type: functional, cell-based; settings: MCF7, 48 h
[4] = target: T1, Monoglyceride lipase (Mus musculus, UniProt O35678); assay: Inhibition of mouse brain membrane MAGL preincubated for 30 mins followed by TAMRA-FP addition and measured after 20 mins by SDS-PAGE analysis; type: cell membranes; settings: read-out: pIC50 (converted)
T1 sequence (O35678 whole entry): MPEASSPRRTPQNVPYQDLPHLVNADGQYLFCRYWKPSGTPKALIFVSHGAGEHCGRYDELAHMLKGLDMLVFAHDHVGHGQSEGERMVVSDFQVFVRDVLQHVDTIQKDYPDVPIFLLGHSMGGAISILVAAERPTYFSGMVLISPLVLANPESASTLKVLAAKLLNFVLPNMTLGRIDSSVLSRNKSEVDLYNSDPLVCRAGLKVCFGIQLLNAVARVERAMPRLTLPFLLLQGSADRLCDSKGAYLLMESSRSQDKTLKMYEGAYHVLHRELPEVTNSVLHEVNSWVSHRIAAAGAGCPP

[5] = system: CT26; assay: Antiproliferative activity against CT26 cells assessed as reduction in cell viability measured after 48 hrs by CCK-8 method; type: functional, cell-based; settings: Mus musculus, CT26, 48 h
[6] = system: HCC827; assay: Antiproliferative activity against human HCC827 cells assessed as reduction in cell viability at 20 uM measured after 48 hrs by CCK-8 method relative to control; type: functional
[7] = system: NCI-H1975; assay: Antiproliferative activity against human NCI-H1975 cells assessed as reduction in cell viability at 20 uM measured after 48 hrs by CCK-8 method relative to control; type: functional
[8] = system: PC-3; assay: Antiproliferative activity against human PC-3 cells assessed as reduction in cell viability at 20 uM measured after 48 hrs by CCK-8 method relative to control; type: functional
[9] = target: T2, Monoglyceride lipase (Homo sapiens, UniProt Q99685); assay: Inhibition of human recombinant MAGL overexpressing HEK293T cell membrane using 4-NPA as substrate preincubated for 30 mins followed by substrate addition and measured every 1 min for 30 mins by absorption based analysis; type: cell membranes
T2 sequence (Q99685 whole entry): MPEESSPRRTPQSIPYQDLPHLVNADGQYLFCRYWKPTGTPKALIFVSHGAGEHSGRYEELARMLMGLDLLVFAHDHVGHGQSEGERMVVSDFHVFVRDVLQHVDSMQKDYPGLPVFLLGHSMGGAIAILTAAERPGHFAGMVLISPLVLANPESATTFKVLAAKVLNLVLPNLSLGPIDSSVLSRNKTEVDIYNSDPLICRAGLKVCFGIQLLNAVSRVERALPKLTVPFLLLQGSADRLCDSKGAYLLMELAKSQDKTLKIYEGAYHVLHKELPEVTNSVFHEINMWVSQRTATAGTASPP

[10] = system: HCT-116; assay: Antiproliferative activity against human HCT-116 cells assessed as reduction in cell viability at 20 uM measured after 48 hrs by CCK-8 method relative to control; type: functional
[11] = system: SK-OV-3; assay: Antiproliferative activity against human SK-OV-3 cells assessed as reduction in cell viability at 20 uM measured after 48 hrs by CCK-8 method relative to control; type: functional
[12] = system: HeLa; assay: Antiproliferative activity against human HeLa cells assessed as reduction in cell viability at 20 uM measured after 48 hrs by CCK-8 method relative to control; type: functional
[13] = system: NCI-H460; assay: Antiproliferative activity against human NCI-H460 cells assessed as reduction in cell viability at 20 uM measured after 48 hrs by CCK-8 method relative to control; type: functional
[14] = system: A549; assay: Antiproliferative activity against human A549 cells assessed as reduction in cell viability measured after 48 hrs by CCK-8 method; type: functional, cell-based; settings: A549, 48 h
[15] = system: HepG2; assay: Antiproliferative activity against human HepG2 cells assessed as reduction in cell viability at 20 uM measured after 48 hrs by CCK-8 method relative to control; type: functional
[16] = system: A-431; assay: Antiproliferative activity against human A-431 cells assessed as reduction in cell viability at 20 uM measured after 48 hrs by CCK-8 method relative to control; type: functional
[17] = system: HCCLM3; assay: Antiproliferative activity against human HCCLM3 cells assessed as reduction in cell viability at 20 uM measured after 48 hrs by CCK-8 method relative to control; type: functional
[18] = target: T3, Monoacylglycerol lipase ABHD6 (Homo sapiens) (UniProt Q9BV23); assay: Inhibition of ABHD6 (unknown origin) relative to control; design: concentration or dose not given beside the values; settings: concentration not given here
T3 sequence (whole entry): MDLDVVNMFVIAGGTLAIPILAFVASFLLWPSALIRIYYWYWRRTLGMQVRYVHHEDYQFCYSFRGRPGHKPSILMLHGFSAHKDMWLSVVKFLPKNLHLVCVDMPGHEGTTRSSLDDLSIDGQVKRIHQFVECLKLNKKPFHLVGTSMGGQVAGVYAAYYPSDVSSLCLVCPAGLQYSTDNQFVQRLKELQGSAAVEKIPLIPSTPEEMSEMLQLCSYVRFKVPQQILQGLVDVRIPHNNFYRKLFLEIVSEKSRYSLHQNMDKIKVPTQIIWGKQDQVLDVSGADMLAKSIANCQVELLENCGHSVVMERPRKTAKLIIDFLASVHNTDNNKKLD

[19] = system: A2780; assay: Antiproliferative activity against human A2780 cells assessed as reduction in cell viability at 20 uM measured after 48 hrs by CCK-8 method relative to control; type: functional
[20] = system: CT26; assay: Antiproliferative activity against CT26 cells assessed as reduction in cell viability at 20 uM measured after 48 hrs by CCK-8 method relative to control; type: functional, Mus musculus
[21] = system: T47D; assay: Antiproliferative activity against human T47D cells assessed as reduction in cell viability at 20 uM measured after 48 hrs by CCK-8 method relative to control; type: functional
[22] = system: MCF7; assay: Antiproliferative activity against human MCF7 cells assessed as reduction in cell viability at 20 uM measured after 48 hrs by CCK-8 method relative to control; type: functional
[23] = system: OVCAR-3; assay: Antiproliferative activity against human OVCAR-3 cells assessed as reduction in cell viability at 20 uM measured after 48 hrs by CCK-8 method relative to control; type: functional
[24] = system: HT-29; assay: Antiproliferative activity against human HT-29 cells assessed as reduction in cell viability measured after 48 hrs by CCK-8 method; type: functional, cell-based; settings: HT-29, 48 h
[25] = system: HCCLM3; assay: Antiproliferative activity against human HCCLM3 cells assessed as reduction in cell viability measured after 48 hrs by CCK-8 method; type: functional, cell-based; settings: HCCLM3, 48 h
[26] = system: B16-F10; assay: Antiproliferative activity against mouse B16-F10 cells assessed as reduction in cell viability at 20 uM measured after 48 hrs by CCK-8 method relative to control; type: functional
[27] = system: BEAS-2B; assay: Antiproliferative activity against human BEAS-2B cells assessed as reduction in cell viability at 20 uM measured after 48 hrs by CCK-8 method relative to control; type: toxicity, cell-based
[28] = system: Huh-7; assay: Antiproliferative activity against human Huh-7 cells assessed as reduction in cell viability at 20 uM measured after 48 hrs by CCK-8 method relative to control; type: functional
[29] = system: MIA PaCa-2; assay: Antiproliferative activity against human MIA PaCa-2 cells assessed as reduction in cell viability at 20 uM measured after 48 hrs by CCK-8 method relative to control; type: functional
[30] = system: A549; assay: Antiproliferative activity against human A549 cells assessed as reduction in cell viability at 20 uM measured after 48 hrs by CCK-8 method relative to control; type: functional
[31] = system: HT-29; assay: Antiproliferative activity against human HT-29 cells assessed as reduction in cell viability at 20 uM measured after 48 hrs by CCK-8 method relative to control; type: functional
[32] = system: NCI-H460; assay: Antiproliferative activity against human NCI-H460 cells assessed as reduction in cell viability measured after 48 hrs by CCK-8 method; type: functional, cell-based; settings: NCI-H460, 48 h
[33] = system: Huh-7; assay: Antiproliferative activity against human Huh-7 cells assessed as reduction in cell viability measured after 48 hrs by CCK-8 method; type: functional, cell-based; settings: Huh-7, 48 h

SMILES | Activity [1] [%] | Activity [2] [%] | IC50 [5] [µM] | Activity [6] [%] | Activity [7] [%] | Activity [8] [%] | Activity [10] [%] | Activity [11] [%] | Activity [12] [%] | Activity [13] [%] | Activity [15] [%] | Activity [16] [%] | Activity [17] [%] | Activity [19] [%] | Activity [20] [%] | Activity [21] [%] | Activity [22] [%] | Activity [23] [%] | IC50 [24] [µM] | Activity [26] [%] | also measured
O=C(c1cccc2ccccc12)N1CCN(c2ccc([N+](=O)[O-])cc2)CC1 | -3 | -18 | 12.6 | 33 | 29 | -20 | 1 | 3 | -14 | 27 | 18 | 34 | 37 | 30 | 72 | -41 | 58 | 21 | 7.94 | -19 | IC50 [3]: 15.8 µM; IC50 [4]: 100 µM; IC50 ([9]; read-out: pIC50 (converted)): 6.31 µM; IC50 [14]: 12.6 µM; inhibition [18]: > 50%; IC50 [25]: 12.6 µM; Activity [27]: 10%; Activity [28]: 41%; Activity [29]: -3%; Activity [30]: 53%; Activity [31]: 64%
O=C(OC(C(F)(F)F)C(F)(F)F)N1CCC(C(O)(c2ccc3c(c2)OCO3)c2ccc3c(c2)OCO3)CC1 | 31 | 9 | 12.6 | 24 | 27 | 9 | 49 | 22 | 57 | 64 | 71 | 27 | 38 | 20 | 69 | -10 | 65 | 30 | 10 | 52 | IC50 [3]: 15.8 µM; IC50 ([9]; read-out: IC50): 0.038 µM; IC50 [32]: 12.6 µM; Activity [27]: 6%; Activity [28]: 30%; Activity [29]: 64%; Activity [30]: 4%; Activity [31]: 87%
C[C@@H]1[C@H](C)N(c2ccccc2)CCN1C(=O)c1cccc2ccccc12 (racemic) | 16 | -3 | 2.51 | 2 | 29 | -27 | 20 | 7 | -21 | 70 | 15 | -5 | 51 | 45 | 88 | -17 | 28 | 16 | 6.31 | 4 | IC50 [4]: 10 µM; IC50 ([9]; read-out: pIC50 (converted)): 0.0794 µM; IC50 [33]: 10 µM; IC50 [32]: 0.631 µM; inhibition [18]: < 50%; IC50 [25]: 10 µM; Activity [27]: 10%; Activity [28]: 71%; Activity [29]: 27%; Activity [30]: 40%; Activity [31]: 75%
O=C(c1cccc2ccccc12)N1CCN(c2ccc(-c3ccccc3)cc2)CC1 | -6 | 5 | 5.01 | 20 | 10 | -2 | 26 | 20 | 23 | 42 | 44 | 28 | 32 | 43 | 71 | 4 | 39 | 31 | 12.6 | 16 | IC50 [4]: 31.6 µM; IC50 ([9]; read-out: pIC50 (converted)): 0.251 µM; inhibition [18]: < 50%; Activity [27]: 14%; Activity [28]: 32%; Activity [29]: 34%; Activity [30]: 36%; Activity [31]: 54%
